From patent publication US11965039B2, “Compstatin analogues and their medical uses” (priority 2018, dated 2024)
Positions of bridges follow the written chain, without caps; N, C: chain ends. Non-standard residues stand in square brackets, D forms with d. Residues, ends and D or L forms follow the SMILES beside them. Trp(1-Me) = Cn1cc(C[C@H](N)C(=O)O)c2ccccc21; Sar = CNCC(=O)O

Assays:
[1] = test system: classical complement pathway; experiment: In vitro haemolysis assay (inhibition of classical complement pathway); assay type: cell-based, human; conditions: human serum, sensitized sheep red blood cells; Table 3, given as upper bounds; read-out: IC50, inhibition of hemolysis
In short: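 Compound dilutions preincubated 15 min at room temperature with diluted human serum (titrated per batch for 70-90% maximal haemolysis), then antibody-sensitized sheep RBC (10^7/well) added for 30 min at 37 °C in Tris/casein buffer, pH 7.4. Stopped with EDTA; haemolysis read at 405 nm; IC50 by 4PL fit.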

[2] = Solubility test at 10 mg/mL (visual inspection and light scattering); assay type: physicochemical; conditions: for Solubility, Condition 1: Acetate pH 4; for Solubility, Condition 2: Acetate pH 5; for Solubility, Condition 3: Phosphate pH 6; for Solubility, Condition 4: Phosphate pH 7; for Solubility, Condition 5: Phosphate pH 7.5

Row | SMILES | IC50 [1] | Solubility, Condition 1 [2] | Solubility, Condition 2 [2] | Solubility, Condition 3 [2] | Solubility, Condition 4 [2] | Solubility, Condition 5 [2]
1 | CC[C@H](C)[C@@H]1NC(=O)[C@@H](NC(=O)[C@H](Cc2ccccc2)NC(C)=O)CSSC[C@@H](C(=O)N[C@H](C(=O)NCC(=O)N[C@@H](C)C(=O)N[C@@H](CCC(=O)O)C(=O)N[C@@H](CO)C(N)=O)[C@@H](C)O)NC(=O)[C@H](CCCNC(=N)N)NC(=O)[C@H](Cc2c[nH]cn2)NC(=O)[C@H](CCC(=O)O)NC(=O)CN(C)C(=O)[C@H](Cc2c[nH]c3ccccc23)NC(=O)[C@H](CC(=O)O)NC(=O)[C@H](CCC(N)=O)NC(=O)[C@H](Cc2cn(C)c3ccccc23)NC1=O [Compound 72, Ac-FC(1)I[1-Me-Trp]QDW[Sar]EHRC(1)TGAES-NH2] (Ac-FCI[Trp(1-Me)]QDW[Sar]EHRCTGAES-NH2; disulfide 2-12) | < 100 nM | − (“−” denotes lack of solubility at the given condition, as UV absorbance at 340 nm exceeds 0.1 AU and/or it is visibly turbid or contains particles) | − (“−” denotes lack of solubility at the given condition, as UV absorbance at 340 nm exceeds 0.1 AU and/or it is visibly turbid or contains particles) | + (“+” denotes solubility at the given condition, as determined by UV absorbance being less than 0.1 AU at 340 nm and the sample being clear when manually inspected) | + (“+” denotes solubility at the given condition, as determined by UV absorbance being less than 0.1 AU at 340 nm and the sample being clear when manually inspected) | + (“+” denotes solubility at the given condition, as determined by UV absorbance being less than 0.1 AU at 340 nm and the sample being clear when manually inspected)
2 | CC[C@H](C)[C@@H]1NC(=O)[C@@H](NC(=O)[C@H](Cc2ccccc2)NC(=O)[C@H](N)Cc2ccc(O)cc2)CSSC[C@@H](C(=O)N[C@H](C(=O)NCC(=O)N[C@@H](C)C(=O)N[C@@H](CCC(=O)O)C(=O)N[C@@H](CO)C(N)=O)[C@@H](C)O)NC(=O)[C@H](CCCNC(=N)N)NC(=O)[C@H](Cc2c[nH]cn2)NC(=O)[C@H](CCC(=O)O)NC(=O)CN(C)C(=O)[C@H](Cc2c[nH]c3ccccc23)NC(=O)[C@H](CC(=O)O)NC(=O)[C@H](CCC(N)=O)NC(=O)[C@H](Cc2cn(C)c3ccccc23)NC1=O [Compound 73, H-{d}YFC(1)I[1-Me-Trp]QDW[Sar]EHRC(1)TGAES-NH2] (H-[dY]FCI[Trp(1-Me)]QDW[Sar]EHRCTGAES-NH2; disulfide 3-13) | < 100 nM | + (“+” denotes solubility at the given condition, as determined by UV absorbance being less than 0.1 AU at 340 nm and the sample being clear when manually inspected) | − (“−” denotes lack of solubility at the given condition, as UV absorbance at 340 nm exceeds 0.1 AU and/or it is visibly turbid or contains particles) | − (“−” denotes lack of solubility at the given condition, as UV absorbance at 340 nm exceeds 0.1 AU and/or it is visibly turbid or contains particles) | + (“+” denotes solubility at the given condition, as determined by UV absorbance being less than 0.1 AU at 340 nm and the sample being clear when manually inspected) | + (“+” denotes solubility at the given condition, as determined by UV absorbance being less than 0.1 AU at 340 nm and the sample being clear when manually inspected)
3 | CC[C@H](C)[C@@H]1NC(=O)[C@@H](NC(=O)[C@H](Cc2ccccc2)NC(=O)[C@H](CCC(=O)O)NC(=O)[C@H](CO)NC(C)=O)CSSC[C@@H](C(=O)N(C)CC(=O)NCC(=O)N[C@@H](C)C(=O)N[C@@H](CCC(=O)O)C(=O)N[C@@H](CO)C(N)=O)NC(=O)[C@H](CCCNC(=N)N)NC(=O)[C@H](Cc2c[nH]cn2)NC(=O)[C@H](CCC(=O)O)NC(=O)CNC(=O)[C@H](Cc2c[nH]c3ccccc23)NC(=O)[C@H](CC(=O)O)NC(=O)[C@H](CCC(N)=O)NC(=O)[C@H](Cc2cn(C)c3ccccc23)NC1=O [Compound 74] (Ac-SEFCI[Trp(1-Me)]QDWGEHRC[Sar]GAES-NH2; disulfide 4-14) | < 100 nM | − (“−” denotes lack of solubility at the given condition, as UV absorbance at 340 nm exceeds 0.1 AU and/or it is visibly turbid or contains particles) | + (“+” denotes solubility at the given condition, as determined by UV absorbance being less than 0.1 AU at 340 nm and the sample being clear when manually inspected) | + (“+” denotes solubility at the given condition, as determined by UV absorbance being less than 0.1 AU at 340 nm and the sample being clear when manually inspected) | + (“+” denotes solubility at the given condition, as determined by UV absorbance being less than 0.1 AU at 340 nm and the sample being clear when manually inspected) | + (“+” denotes solubility at the given condition, as determined by UV absorbance being less than 0.1 AU at 340 nm and the sample being clear when manually inspected)
4 | CC[C@H](C)[C@@H]1NC(=O)[C@@H](NC(=O)[C@H](Cc2ccccc2)NC(=O)[C@H](CCC(=O)O)NC(=O)[C@H](CO)NC(C)=O)CSSC[C@@H](C(=O)N(C)CC(=O)N[C@@H](CCC(=O)O)C(=O)N[C@@H](C)C(N)=O)NC(=O)[C@H](CCCNC(=N)N)NC(=O)[C@H](Cc2c[nH]cn2)NC(=O)[C@H](CCC(=O)O)NC(=O)CN(C)C(=O)[C@H](Cc2c[nH]c3ccccc23)NC(=O)[C@H](CC(=O)O)NC(=O)[C@H](CCC(N)=O)NC(=O)[C@H](Cc2cn(C)c3ccccc23)NC1=O [Compound 76, Ac-SEFC(1)I[1-Me-Trp]QDW[Sar]EHRC(1)[Sar]EA-NH2] (Ac-SEFCI[Trp(1-Me)]QDW[Sar]EHRC[Sar]EA-NH2; disulfide 4-14) | < 100 nM | − (“−” denotes lack of solubility at the given condition, as UV absorbance at 340 nm exceeds 0.1 AU and/or it is visibly turbid or contains particles) | − (“−” denotes lack of solubility at the given condition, as UV absorbance at 340 nm exceeds 0.1 AU and/or it is visibly turbid or contains particles) | + (“+” denotes solubility at the given condition, as determined by UV absorbance being less than 0.1 AU at 340 nm and the sample being clear when manually inspected) | + (“+” denotes solubility at the given condition, as determined by UV absorbance being less than 0.1 AU at 340 nm and the sample being clear when manually inspected) | + (“+” denotes solubility at the given condition, as determined by UV absorbance being less than 0.1 AU at 340 nm and the sample being clear when manually inspected)
5 | CC[C@H](C)[C@@H]1NC(=O)[C@@H](NC(=O)[C@H](Cc2ccccc2)NC(=O)[C@H](CCC(=O)O)NC(=O)[C@H](CO)NC(C)=O)CSSC[C@@H](C(=O)N[C@H](C(=O)N[C@@H](CCC(=O)O)C(=O)N[C@@H](C)C(N)=O)[C@@H](C)O)NC(=O)[C@H](CCCNC(=N)N)NC(=O)[C@H](Cc2c[nH]cn2)NC(=O)[C@H](CCC(=O)O)NC(=O)CN(C)C(=O)[C@H](Cc2c[nH]c3ccccc23)NC(=O)[C@H](CC(=O)O)NC(=O)[C@H](CCC(N)=O)NC(=O)[C@H](Cc2cn(C)c3ccccc23)NC1=O [Compound 77, Ac-SEFC(1)I[1-Me-Trp]QDW[Sar]EHRC(1)TEA-NH2] (Ac-SEFCI[Trp(1-Me)]QDW[Sar]EHRCTEA-NH2; disulfide 4-14) | < 100 nM | − (“−” denotes lack of solubility at the given condition, as UV absorbance at 340 nm exceeds 0.1 AU and/or it is visibly turbid or contains particles) | − (“−” denotes lack of solubility at the given condition, as UV absorbance at 340 nm exceeds 0.1 AU and/or it is visibly turbid or contains particles) | + (“+” denotes solubility at the given condition, as determined by UV absorbance being less than 0.1 AU at 340 nm and the sample being clear when manually inspected) | + (“+” denotes solubility at the given condition, as determined by UV absorbance being less than 0.1 AU at 340 nm and the sample being clear when manually inspected) | + (“+” denotes solubility at the given condition, as determined by UV absorbance being less than 0.1 AU at 340 nm and the sample being clear when manually inspected)
6 | CC[C@H](C)[C@@H]1NC(=O)[C@@H](NC(=O)[C@H](Cc2ccccc2)NC(=O)[C@H](CCC(=O)O)NC(=O)[C@H](CO)NC(C)=O)CSSC[C@@H](C(=O)N(C)CC(=O)N[C@@H](CCC(=O)O)C(N)=O)NC(=O)[C@H](CCCNC(=N)N)NC(=O)[C@H](Cc2c[nH]cn2)NC(=O)[C@H](CCC(=O)O)NC(=O)CNC(=O)[C@H](Cc2c[nH]c3ccccc23)NC(=O)[C@H](CC(=O)O)NC(=O)[C@H](CCC(N)=O)NC(=O)[C@H](Cc2cn(C)c3ccccc23)NC1=O [Compound 78] (Ac-SEFCI[Trp(1-Me)]QDWGEHRC[Sar]E-NH2; disulfide 4-14) | < 100 nM | − (“−” denotes lack of solubility at the given condition, as UV absorbance at 340 nm exceeds 0.1 AU and/or it is visibly turbid or contains particles) | − (“−” denotes lack of solubility at the given condition, as UV absorbance at 340 nm exceeds 0.1 AU and/or it is visibly turbid or contains particles) | + (“+” denotes solubility at the given condition, as determined by UV absorbance being less than 0.1 AU at 340 nm and the sample being clear when manually inspected) | + (“+” denotes solubility at the given condition, as determined by UV absorbance being less than 0.1 AU at 340 nm and the sample being clear when manually inspected) | + (“+” denotes solubility at the given condition, as determined by UV absorbance being less than 0.1 AU at 340 nm and the sample being clear when manually inspected)
